Results reported in patent publication US9512425B2, “Inhibiting migration of cancer cells” (Cornell University, priority 2012, dated 2016).

Assays:
MDA-MB-231 cells = test: Orthotopic MDA tumor / pulmonary metastasis model, bioluminescence imaging; format: in vivo, CB-17 SCID mice
Method: For orthotopic injection, 1×10^6 viable MDA-MB-231, MDA-Cont, or MDA-miR-708 cells were injected into CB-17 SCID mice fat pads in a volume of 0.1 ml. Tumor growth and pulmonary metastases (following resection of primary tumor) were monitored by live animal bioluminescent imaging (Xenogen IVIS system) once per week.
Mice inoculated with firefly luciferase were anaesthetized and injected retro-orbitally with 75 mg/kg of D-luciferin (30 mg/mL in PBS). Images were taken with mice in a supine position using the Xenogen IVIS system coupled to Living Image acquisition and analysis software (Xenogen). For bioluminescence (BLI) plots, photon flux was calculated for each mouse by using a rectangular region of interest encompassing the thorax of the mouse.

MDA-MB-231 (MDA) = test: Wound healing / transwell migration of MDA cells stably expressing miR-708; format: cell-based, human; conditions: MDA cells stably expressing miR-708 (lentiviral) vs controls
Source text: To express miRNA-708 in cells, about 500 bp of pri-miRNA containing the mature miR-708 sequence 5′-[…]-3′ (SEQ ID NO: 2) was amplified and cloned into the pZEO lentiviral construct in fusion with a GFP reporter as described (Ryu et al., 2011). miRNA sponge was generated according to (Ebert et al., 2007). Briefly, the sponge contains twelve miR-708 binding sites, 5′-[…]-3′ (SEQ ID NO: 3) which is fused with GFP and driven by an EF1α promoter. In particular, miRNA-708 was designed and cloned into the Xho I/EcoR I site of the lentiviral vector. To express miRNA-708 inducibly in cells, a doxycycline inducible construct was generated. […]
Cells were plated in triplicate into 6-well plates (5×10^5 cell/well) and cultured in DMEM containing 10% FBS. […] Cell migration was photographed and measured under phase-contrast microscopy. To measure cell migration after depletion of intracellular calcium, a scratch was made and the wound healing was monitored for 48 hr in the presence of 20 μM of BAPTA-AM (Invitrogen). The percentage of wound healed area was measured as a ratio of occupied area to the total area using Image J program (NIH).
For transwell assays, 10,000 cells were plated in triplicate on 8 micron inserts in 24 well plates containing DMEM. […] After staining, images were obtained using a computerized Zeiss microscope (Axiovert 200M) and analyzed using Axiovision 4.6 software (Carl Zeiss Inc.).

## miR-708: microRNA, mature sequence 5'-AAGGAGCUUACAAUCUAGCUGGG-3' (SEQ ID NO: 2); expressed from lentiviral vector or used as synthetic precursor
MDA-MB-231 cells; MDA-miR-708 vs MDA-pZeo control, day 30
  primary tumor growth (bioluminescence imaging): no change
MDA-MB-231 cells; MDA-miR-708 vs control, primary tumors resected day 30, day 37
  lung metastases (bioluminescence): significantly suppressed
MDA-MB-231 cells; constitutive miR-708 in MDA cells, mammary fat pad, day 60
  primary tumor growth (bioluminescence): no significant difference
MDA-MB-231 cells; constitutive miR-708 in MDA cells, primary tumors resected day 60, day 74
  lung metastases (bioluminescence): suppressed lung metastases
MDA-MB-231 cells; doxycycline-mediated induction of miR-708, day 60
  primary tumor growth: not affected
MDA-MB-231 cells; doxycycline-mediated induction of miR-708, day 74
  metastases: attenuated metastases
MDA-MB-231 (MDA)
  migration rates: suppressed migration rates
